These results are taken from a melting point compilation (Tetko et al.; mined from patent text by program, amines drawn as free bases though some values may be those of a salt).

As a reminder, the melting point is the temperature of the solid-liquid transition.

Each structure is given as a SMILES string.

The compound `CN(C)C(=O)n1oc(CCl)cc1=O` registered a melting point of 89 to 90 °C.

Take `Cc1cccc(-n2nc(Sc3ccc(Cl)cc3)c(C)c(C#N)c2=O)c1`: the melting point fell in the range of 163 to 165 °C. Next, `CCN(CC)CCN(c1ccc(C(=O)c2ccccc2)cc1)S(C)(=O)=O`: 74 to 76 °C; `O=C1Nc2ccccc2Oc2sc3ccccc3c21`: 240 to 242 °C.

The compound `Oc1ccc(-c2ncc3ncc(-c4ccoc4)cc3n2)cc1` displayed a melting point greater than 268 °C. Next, `COc1ccc(CCNC(=O)CNc2cccc(C(N)=O)c2)cc1OC`: 133 to 135 °C; `CC(ON=c1c2nccc3cccc(c32)n2cccc12)C(=O)O` (centres undefined): 225 °C. `Fc1ccc(C(=Cc2ccccc2Cl)CBr)cc1` returned a melting point of 68 °C. To `CC(C)(C)OC(=O)N1CCc2c(n(CCOc3ccccc3)c3cc(Cl)cc(Cl)c23)CC1` belongs 132 to 133 °C. Take `Cc1c(Sc2ccc(Cl)cc2)nn(-c2ccc(Oc3ccccc3)cc2)c(=O)c1C#N`: the melting point was 164 °C. To `COc1c(C=O)ccc(OCC(=O)O)c1Cc1ccc2c(Cl)cccc2c1` belongs 191 to 192 °C; to `COc1ccc([N+](=O)[O-])c(F)c1`, 47 to 49 °C; to `NC(=O)Cc1ccc2c(c1)CCc1cccnc1S2`, 165 to 166 °C.

In turn, `COCCN(CCOC)Cc1ccc(NC(=O)C2=Cc3cc(-c4ccc(C)cc4)ccc3OCC2)cc1` registered a melting point of 110 to 112 °C.

The compound `CC(C)(C)OC(=O)NC(Cc1ccccc1)C(=O)Nc1ccc2[nH]cc(CC#N)c2c1` (centres undefined) came in with a melting point of 146 to 149 °C. To `CNS(=O)(=O)c1ccc(-c2cnc3[nH]cc(C(=O)C(C)(C)C)c3n2)cc1` belongs 278 to 280 °C; to `CCCCC(N)S(=O)(=O)O` (centres undefined), 142 °C; to `CC(Br)c1cccc2c(-c3ccccc3)onc12` (centres undefined), 73 to 77 °C. Regarding `Fc1cccc(F)c1-c1ncc(NCc2ccc(Cl)cc2)nn1`, the melting point fell in the range of 200 to 205 °C. To `CCn1nc(-c2ccccc2)c(C(=O)OCC(=O)OCc2ccccc2)c(Nc2cnccc2C)c1=O` belongs 115 to 116 °C; to `CCCCCCCC(=O)Oc1ccc2nc(S(N)(=O)=O)sc2c1`, 114 °C; to `CC(C)(C)OC(=O)c1nc(-c2ccccc2)[nH]c1-c1cnccn1`, 196 to 197 °C.

Compound `CC(c1cn(C)c2ccccc12)N(O)C(N)=O` (centres undefined) returned a melting point of 149 to 150 °C.

On to `CCOC1Nc2c(OC(C)=O)cccc2C(=O)N2CCCC12` (centres undefined), for which the melting point is 146 to 149 °C.

As for `COCCn1nc2c(N)nc3ccccc3c2c1CCCCCl`, the melting point is 156 to 157 °C. Turning to `O=C(NCCC(O)(c1ccccc1)c1ccccc1)c1ccccc1`, the melting point is 145 to 146 °C. Next, `O=c1[nH]c2ccc(S(=O)(=O)NCCBr)cc2[nH]c1=O`: 261 to 266 °C; `CCCNC(=O)Nc1ccccc1`: 106 to 107 °C. Next, `CC(C)(CCl)C(=O)N(O)c1ccccc1`: 120 to 121 °C; `COc1cccc(CNC(=O)c2nc3cccc(O)c3c(=O)[nH]2)c1`: 187 to 189 °C; `c1csc(C2NCCNCc3ccccc32)c1` (centres undefined): 148 °C. To `CCCCCCCCCCOC(=O)CS(=O)(=O)Nc1c(C(C)C)cccc1C(C)C` belongs 65 to 67 °C; to `CCC(CO)NC(=O)C(C)(C)c1ccc(-c2cccc(COC)c2)cc1` (centres undefined), 73 to 75 °C. With `CCN(CC)CC1CCCCN1CCNC(=O)N1c2ccc(C)cc2C(=O)Nc2cccnc21` (centres undefined), the melting point fell in the range of 148 to 150 °C. `CN1C(=O)C(c2cccc(-c3cccnc3F)c2)(c2cc(C=O)n(CCF)c2)N=C1N` (centres undefined): the melting point was in the range of 218 to 221 °C.

Regarding `CS(=O)(=O)c1cccc(C2=C(c3ccccc3)C(=O)N(c3ccc(F)cc3)C2)c1`, the melting point lay within 207 to 209 °C. To `CCC(=O)NC[C@H]1CN(c2ccc3c(c2)C[C@@H](C)N3C(=O)OCc2ccccc2)C(=O)O1` belongs 181 to 183 °C; to `O=C(O)CCc1cn(Cc2ccc(OCc3ccc(-c4ccccc4)cn3)cc2)nc1-c1ccc(F)cc1`, 162 to 163 °C; to `CCCc1nc2c(N)nc3ccccc3c2n1CC(C)(C)CC1(C)OCCO1`, 186 to 188 °C.

`CCn1cc(C(=O)O)c(=O)cc1-c1ccc(N2CCCC2)cc1` showed a melting point of 276 to 278 °C. Next, `CC(/C=C/c1ccsc1-c1ccc2c(c1)C(C)(C)CCC2(C)C)=C\C(=O)O`: 195 to 197 °C; `O=C(O)Cn1cc(Cc2nc3c(F)c(F)cc(F)c3s2)c2ccccc21`: 177 to 178 °C. Next, `CNC(=O)NS(=O)(=O)c1cc2c(cc1OC)OCCC2CNC(=O)c1cc(F)ccc1OC` (centres undefined): 193 to 194 °C; `O=C(CN1CC(O)CC1=O)Oc1ccc(Cl)c(Cl)c1Cl` (centres undefined): 84 to 86 °C. To `Cc1cccc(-c2nc(CCOc3ccc(C=CC=C4OC(=O)NC4=O)cc3)c(C)o2)c1` belongs 213 to 214 °C; to `COC(=O)c1c(F)cc(OCCNC(=O)C2Cc3ccccc3N2S(=O)(=O)c2ccc(-c3cc(C(F)(F)F)ccc3Cl)cc2)cc1F` (centres undefined), 78 °C; to `CCCCCCCCCCc1csc2c1sc1c2sc2c3scc(CCCCCCCCCC)c3sc21`, 108 °C. The compound `CCc1oc(C)cc(=O)c1C(=O)Nc1ccccc1` had a melting point of 154 to 156 °C.

`NC(=O)Nc1ccccc1S` showed a melting point of 151 to 153 °C. Next, `CCOC(=O)c1c(-c2ccccc2)n(-c2ccc(OC)cc2)c2ccccc2c1=O`: 246 to 247 °C; `Nc1nc(N2CCC2)c2nc[nH]c2n1`: 280 °C; `CN1Cc2c(C(=O)OCC3CC3)ncn2-c2ccc(F)cc2C1=O`: 156 to 157 °C.

Regarding `CCCc1c2c(c3oc(C(=O)OC)cc(=O)c3c1OC)CCCC2`, the melting point was determined as 124 °C.

For `COC(=O)c1ccc(OCCCN(C(C)=O)c2ccc(Cl)cc2)cc1`, the melting point was 68 to 69 °C. For `CC(=O)Oc1ccc(-c2nc3c(N)nc(N)nc3nc2N)cc1`, the melting point is 319 to 321 °C. `CCCCCCCCCCC[C@H](CC(=O)N[C@@H](CO)C(=O)OCc1ccccc1)OC(=O)CCCCCCC` returned a melting point of 50 to 51 °C.

On to `CC(C)(C)OC(=O)COc1cc(NC(=O)OC(C)(C)C)c(NC(=O)CC(=O)c2cccc(-n3ccnc3)c2)cc1-c1ccc(F)cc1`, for which the melting point is 82 to 85 °C. To `COc1nnc2n1-c1sc(CCC(=O)N3CCOCC3)cc1C(c1ccccc1Cl)=NC2` belongs 163 to 164 °C; to `CCCn1c(=O)c2[nH]c(/C=C/c3cccnc3)nc2n(CCC)c1=O`, 265 to 267 °C. On to `OCCNc1nc(Cl)nc2c1ncn2C1CC(O)C(CO)O1` (centres undefined), for which the melting point lay within 167 to 168 °C. To `CC(=O)Nc1ccc(OCC2CCC=CO2)cc1` (centres undefined) belongs 114 to 116 °C; to `Cc1ccccc1CN1CCC(n2c(C)c(-c3ccc(Cl)cc3)[nH]c2=O)CC1`, 218 to 220 °C. Next, `Cc1cc(Br)c(S(N)(=O)=O)cc1C(=O)O`: 237 °C. Next, `N#CCc1c[nH]c2ccc(NC(N)=O)cc12`: 200 to 204 °C; `CS(=O)(=O)N1CCCCc2nc(-c3ccncc3)sc21`: 193 to 194 °C. In the case of `O=C(Nc1ccncn1)C(CC1CCCC1)c1cccc(C(F)(F)F)c1` (centres undefined), the melting point fell in the range of 113 to 115 °C. Next, `FC(F)(F)c1ccnc(N2CCN(Cc3n[nH]c4ccccc34)CC2)c1`: 99 to 100 °C. Next, `CC(=O)CC(=O)Nc1cccc(C(F)(F)F)c1`: 109 to 110 °C; `N#Cc1cc(N)ccc1N(CCO)CCO`: 38 °C; `O=C(O)C1CC(c2ccccc2)=NN1` (centres undefined): 180 to 182 °C. To `CCc1cccc(C)c1CNc1nc(Br)cnc1N` belongs 155 °C; to `COc1ccc(-c2nc3cccnc3[nH]2)cc1NS(=O)(=O)c1cccs1`, 252 to 254 °C; to `C=C1CCC2C3CCC4=CC(=O)CCC4C3CCC12C` (centres undefined), 83 to 89 °C. Take `COc1ccccc1N1CCN(C(=O)N(C)c2nc(C)c(C)nc2OC)CC1`: the melting point lay in the range of 140 to 142 °C.

In the case of `FC(F)(F)c1cc(Sc2ccc(Cl)cc2)c(-c2ccc(Cl)cc2)[nH]1`, the melting point was in the range of 39 to 54 °C. Compound `O=C(O)c1c2c(nc3ccc(F)cc13)-c1cc(F)c(-c3ccc(F)cc3)cc1CCC2` registered a melting point greater than 300 °C. Compound `CS(=O)(=O)O[C@@H]([C@H](OS(C)(=O)=O)[C@H](Cc1ccccc1)NC(=O)OCc1ccccc1)[C@H](Cc1ccccc1)NC(=O)OCc1ccccc1` returned a melting point of 153 to 155 °C. To `COc1ccc2nc(-c3ccc(OC)c(F)c3)c(Cl)c(Br)c2c1` belongs 197 to 199 °C. To `CCCCCCC1OC(=O)c2cc(NC(C)=O)ccc21` (centres undefined) belongs 135 to 137 °C. Next, `Cc1oc(-c2ccc3ccccc3c2)nc1COc1ccc(CCCCC2OC(=O)NC2=O)cc1` (centres undefined): 163 to 164 °C; `c1ccc(N=C2CCCc3ccccc32)cc1`: 53 °C; `O=C1Nc2cc(Cl)ccc2OC1CCCBr` (centres undefined): 157 to 158 °C. Regarding `CCCCCCCCNC(=O)Nc1sc(C(=O)OC(C)CCCCCC)c(C)c1C(=O)OC(C)(C)C` (centres undefined), the melting point lay within 92 to 94 °C. To `CCCC(=O)c1cc(C(=O)C(=O)OC(=O)C(=O)c2cc(C(=O)CCC)c(C)cc2N)c(N)cc1C` belongs 224 to 226 °C.

Regarding `NC(=O)c1cn(-c2ccccc2)nc1-c1ccc([N+](=O)[O-])o1`, the melting point lay in the range of 236 to 238 °C. `N#Cc1ccc(CN2CCC(N3C(=O)Nc4ccccc4C3c3ccccc3)CC2)cc1` (centres undefined): the melting point lay within 189 to 192 °C. To `CCN(CC)C(=O)COc1ccn2nc(-c3ccccc3)c(-c3ccc(=O)n(C(C)C)n3)c2c1` belongs 125 to 126 °C. To `COc1ccc(C(=Cc2cc3c(cc2[N+](=O)[O-])OCO3)C(=O)O)cc1` belongs 184 to 185 °C; to `CC(=O)c1cn(C(=O)OC(C)(C)C)c2ccc(OCc3ccccc3)cc12`, 114 to 116 °C.
